In ChEMBL document CHEMBL6114949, “Synthesis and physiological effects of new 4-aminophenol derivatives as paracetamol analogues” (Bioorg Med Chem Lett, 2025):
Active and inactive are the calls of the source. No cut-off for these calls is given here.

How the values were obtained:
[1] = tested on: Rattus norvegicus; experiment: Antipyretic activity against LPS-induced polyphasic febrile response in rats assessed as change in core body temperature at 150 mg/kg, po treated 40 mins prior to LPS addition and measured after 160 mins during phase 1 (reference value: 0.85 deg C); format: functional; details: time 200 min, 3.333 h
[2] = tested on: Rattus norvegicus; experiment: Antinociceptive activity in zymosan-induced rat model of thermal nociceptive hypersensitivity assessed as nociceptive response inhibition at 150 mg/kg, ig administered once daily for 7 days and measured 1 hr post-zymosan challenge on day 7 by hot-plate test (reference value: -42.4%); format: functional; details: po, 168 h, time 7 day
[3] = Hepatotoxicity in zymosan-induced rat arthritis model assessed as change in hepatocyte karyoplasm at 150 mg/kg, ig administered once daily for 7 days by hematoxylin-eosin staining based histological analysis; format: toxicity, organism-based, Liver; details: in vivo, po, 168 h, time 7 day
[4] = Hepatotoxicity in zymosan-induced rat arthritis model assessed as appearance of vacuoles in hepatocyte cytoplasm at 150 mg/kg, ig administered once daily for 7 days by hematoxylin-eosin staining based histological analysis; format: toxicity, organism-based, Liver; details: in vivo, po, 168 h, time 7 day
[5] = Hepatotoxicity in zymosan-induced rat arthritis model assessed as change in hepatocyte shape at 150 mg/kg, ig administered once daily for 7 days by hematoxylin-eosin staining based histological analysis; format: toxicity, organism-based, Liver; details: in vivo, po, 168 h, time 7 day
[6] = Hepatotoxicity in zymosan-induced rat arthritis model assessed as change in hepatocyte cytoplasmic appearance at 150 mg/kg, ig administered once daily for 7 days by hematoxylin-eosin staining based histological analysis; format: toxicity, organism-based, Liver; details: in vivo, po, 168 h, time 7 day
[7] = Hepatotoxicity in zymosan-induced rat arthritis model assessed as change in shape of liver central veins at 150 mg/kg, ig administered once daily for 7 days by hematoxylin-eosin staining based histological analysis; format: toxicity, organism-based; details: in vivo, po, 168 h, time 7 day
[8] = Hepatotoxicity in zymosan-induced rat arthritis model assessed as effect on sinusoids arrangement at 150 mg/kg, ig administered once daily for 7 days by hematoxylin-eosin staining based histological analysis; format: toxicity, organism-based, Liver; details: in vivo, po, 168 h, time 7 day
[9] = Hepatotoxicity in zymosan-induced rat arthritis model assessed as effect on beam structure of liver at 150 mg/kg, ig administered once daily for 7 days by hematoxylin-eosin staining based histological analysis; format: toxicity, organism-based; details: in vivo, po, 168 h, time 7 day
[10] = Hepatotoxicity in zymosan-induced rat arthritis model assessed as effect on general architecture of liver at 150 mg/kg, ig administered once daily for 7 days by hematoxylin-eosin staining based histological analysis; format: toxicity, organism-based; details: in vivo, po, 168 h, time 7 day
[11] = Hepatotoxicity in zymosan-induced rat arthritis model assessed as effect on sinusoids elongation at 150 mg/kg, ig administered once daily for 7 days by hematoxylin-eosin staining based histological analysis; format: toxicity, organism-based, Liver; details: in vivo, po, 168 h, time 7 day
[12] = tested on: Rattus norvegicus; experiment: Antipyretic activity against LPS-induced polyphasic febrile response in rats assessed as suppression of rise in core body temperature at 150 mg/kg, po treated 40 mins prior to LPS addition and measured after 160 mins relative to control; format: functional; details: time 200 min, 3.333 h
[13] = Hepatotoxicity in zymosan-induced rat arthritis model assessed as change in hepatocyte nucleus size at 150 mg/kg, ig administered once daily for 7 days by hematoxylin-eosin staining based histological analysis; format: toxicity, organism-based, Liver; details: in vivo, po, 168 h, time 7 day
[14] = Hepatotoxicity in zymosan-induced rat arthritis model assessed as change in shape of liver portal tracts at 150 mg/kg, ig administered once daily for 7 days by hematoxylin-eosin staining based histological analysis; format: toxicity, organism-based; details: in vivo, po, 168 h, time 7 day
[15] = tested on: Rattus norvegicus; experiment: Antipyretic activity against LPS-induced polyphasic febrile response in rats assessed as return of body temperature to background value at 150 mg/kg, po treated 40 mins prior to LPS addition and measured after 235 mins; format: functional, organism-based; details: time 275.0 min
[16] = Hepatotoxicity in zymosan-induced rat arthritis model assessed as disruption of hepatocyte membrane at 150 mg/kg, ig administered once daily for 7 days by hematoxylin-eosin staining based histological analysis; format: toxicity, organism-based, Liver; details: in vivo, po, 168 h, time 7 day
[17] = tested on: Rattus norvegicus; experiment: Antinociceptive activity in zymosan-induced rat arthritis model assessed as nociceptive response inhibition at 150 mg/kg, ig administered once daily for 7 days and measured 1 hr post-zymosan challenge on day 7 by Randall-Selitto test (reference value: -34.6%); format: functional; details: po, 168 h, time 7 day
[18] = Hepatotoxicity in zymosan-induced rat arthritis model assessed as change in hepatocyte cytoplasmic appearance at 215 mg/kg, ig administered once daily for 7 days by hematoxylin-eosin staining based histological analysis; format: toxicity, organism-based, Liver; details: in vivo, po, 168 h, time 7 day
[19] = tested on: Rattus norvegicus; experiment: Antipyretic activity against LPS-induced polyphasic febrile response in rats assessed as change in core body temperature at 215 mg/kg, po treated 40 mins prior to LPS addition and measured after 160 mins during phase 1 (reference value: 0.85 deg C); format: functional, organism-based; details: time 200.0 min
[20] = Hepatotoxicity in zymosan-induced rat arthritis model assessed as effect on general architecture of liver at 215 mg/kg, ig administered once daily for 7 days by hematoxylin-eosin staining based histological analysis; format: toxicity, organism-based; details: in vivo, po, 168 h, time 7 day
[21] = Hepatotoxicity in zymosan-induced rat arthritis model assessed as effect on beam structure of liver at 215 mg/kg, ig administered once daily for 7 days by hematoxylin-eosin staining based histological analysis; format: toxicity, organism-based; details: in vivo, po, 168 h, time 7 day
[22] = tested on: Rattus norvegicus; experiment: Antinociceptive activity in zymosan-induced rat arthritis model assessed as nociceptive response inhibition at 215 mg/kg, ig administered once daily for 7 days and measured 1 hr post-zymosan challenge on day 7 by Randall-Selitto test (reference value: -34.6%); format: functional; details: po, 168 h, time 7 day
[23] = Hepatotoxicity in zymosan-induced rat arthritis model assessed as effect on sinusoids elongation at 215 mg/kg, ig administered once daily for 7 days by hematoxylin-eosin staining based histological analysis; format: toxicity, organism-based, Liver; details: in vivo, po, 168 h, time 7 day
[24] = Hepatotoxicity in zymosan-induced rat arthritis model assessed as appearance of vacuoles in hepatocyte cytoplasm at 215 mg/kg, ig administered once daily for 7 days by hematoxylin-eosin staining based histological analysis; format: toxicity, organism-based, Liver; details: in vivo, po, 168 h, time 7 day
[25] = tested on: Rattus norvegicus; experiment: Antipyretic activity against LPS-induced polyphasic febrile response in rats assessed as return of body temperature to background value at 215 mg/kg, po treated 40 mins prior to LPS addition and measured after 190 mins; format: functional, organism-based; details: time 230.0 min
[26] = tested on: Rattus norvegicus; experiment: Antipyretic activity against LPS-induced polyphasic febrile response in rats assessed as suppression of rise in core body temperature at 215 mg/kg, po treated 40 mins prior to LPS addition and measured after 10 mins; format: functional, organism-based; details: time 50.0 min
[27] = tested on: Rattus norvegicus; experiment: Antipyretic activity against LPS-induced polyphasic febrile response in rats assessed as suppression of rise in core body temperature at 215 mg/kg, po treated 40 mins prior to LPS addition and measured after 160 mins relative to control; format: functional; details: time 200 min, 3.333 h
[28] = Hepatotoxicity in zymosan-induced rat arthritis model assessed as change in shape of liver central veins at 215 mg/kg, ig administered once daily for 7 days by hematoxylin-eosin staining based histological analysis; format: toxicity, organism-based; details: in vivo, po, 168 h, time 7 day
[29] = Hepatotoxicity in zymosan-induced rat arthritis model assessed as change in hepatocyte karyoplasm at 215 mg/kg, ig administered once daily for 7 days by hematoxylin-eosin staining based histological analysis; format: toxicity, organism-based, Liver; details: in vivo, po, 168 h, time 7 day
[30] = Hepatotoxicity in zymosan-induced rat arthritis model assessed as change in shape of liver portal tracts at 215 mg/kg, ig administered once daily for 7 days by hematoxylin-eosin staining based histological analysis; format: toxicity, organism-based; details: in vivo, po, 168 h, time 7 day
[31] = Hepatotoxicity in zymosan-induced rat arthritis model assessed as disruption of hepatocyte membrane at 215 mg/kg, ig administered once daily for 7 days by hematoxylin-eosin staining based histological analysis; format: toxicity, organism-based, Liver; details: in vivo, po, 168 h, time 7 day
[32] = Hepatotoxicity in zymosan-induced rat arthritis model assessed as change in hepatocyte shape at 215 mg/kg, ig administered once daily for 7 days by hematoxylin-eosin staining based histological analysis; format: toxicity, organism-based, Liver; details: in vivo, po, 168 h, time 7 day
[33] = Hepatotoxicity in zymosan-induced rat arthritis model assessed as change in hepatocyte nucleus size at 215 mg/kg, ig administered once daily for 7 days by hematoxylin-eosin staining based histological analysis; format: toxicity, organism-based, Liver; details: in vivo, po, 168 h, time 7 day
[34] = Hepatotoxicity in zymosan-induced rat arthritis model assessed as effect on sinusoids arrangement at 215 mg/kg, ig administered once daily for 7 days by hematoxylin-eosin staining based histological analysis; format: toxicity, organism-based, Liver; details: in vivo, po, 168 h, time 7 day
[35] = tested on: Rattus norvegicus; experiment: Antinociceptive activity in zymosan-induced rat model of thermal nociceptive hypersensitivity assessed as nociceptive response inhibition at 215 mg/kg, ig administered once daily for 7 days and measured 1 hr post-zymosan challenge on day 7 by hot-plate test (reference value: -42.4%); format: functional; details: po, 168 h, time 7 day

CCCCCCCC(=O)Nc1ccc(OCC(=O)O)cc1
T [1]: 0.28 °C | inhibition in vivo at 150 mg/kg [2]: 8.5% | Activity [3]: Non-toxic | Activity [4]: Non-toxic | Activity [5]: Non-toxic | Activity [6]: Non-toxic | Activity [7]: Non-toxic | Activity [8]: Non-toxic | Activity [9]: Non-toxic | Activity [10]: Non-toxic | Activity [11]: Non-toxic | fold change (FC) [12]: 3 | Activity [13]: Non-toxic | Activity [14]: Non-toxic | Activity [15]: Active | Activity [16]: Non-toxic | inhibition in vivo at 150 mg/kg [17]: 21.3%

CCCCCCCCCCCCCCCC(=O)Nc1ccc(OCC(=O)O)cc1
Activity [18]: Non-toxic | ΔTm [19]: 0.28 °C | Activity [20]: Non-toxic | Activity [21]: Non-toxic | inhibition in vivo at 215 mg/kg [22]: 21.7% | Activity [23]: Non-toxic | Activity [24]: Non-toxic | Activity [25]: Active | Activity [26]: Active | fold change (FC) [27]: 3 | Activity [28]: Non-toxic | Activity [29]: Non-toxic | Activity [30]: Non-toxic | Activity [31]: Non-toxic | Activity [32]: Non-toxic | Activity [33]: Non-toxic | Activity [34]: Non-toxic | inhibition in vivo at 215 mg/kg [35]: 42.2%
